How the values were obtained:
NCI-H1975 [1] = experiment: cells; assay type: functional, cell-based; conditions: Homo sapiens, NCI-H1975, 72 h
A549 = experiment: Antiproliferative activity against human A549 cells expressing wild type EGFR assessed as inhibition in cell viability after 72 hrs by CCK8 assay; assay type: functional, cell-based; conditions: A549, 72 h
HCC827 = experiment: Antiproliferative activity against human HCC827 cells expressing EGFR del119 mutant assessed as inhibition in cell viability after 72 hrs by CCK8 assay; assay type: functional, cell-based; conditions: HCC827, 72 h
NCI-H1299 [2] = experiment: Antiproliferative activity against human NCI-H1299 cells expressing wild type EGFR assessed as inhibition in cell viability after 72 hrs by CCK8 assay; assay type: functional, cell-based; conditions: NCI-H1299, 72 h
[3] = target: Epidermal growth factor receptor (Homo sapiens, UniProt P00533, EX19DEL); experiment: Inhibition of EGFR del19 (unknown origin) using flurogenic substrate in presence of ATP by HTRF assay
Epidermal growth factor receptor (Homo sapiens, UniProt P00533, EX19DEL), sequence (P00533 whole entry, looked up, stated change not applied): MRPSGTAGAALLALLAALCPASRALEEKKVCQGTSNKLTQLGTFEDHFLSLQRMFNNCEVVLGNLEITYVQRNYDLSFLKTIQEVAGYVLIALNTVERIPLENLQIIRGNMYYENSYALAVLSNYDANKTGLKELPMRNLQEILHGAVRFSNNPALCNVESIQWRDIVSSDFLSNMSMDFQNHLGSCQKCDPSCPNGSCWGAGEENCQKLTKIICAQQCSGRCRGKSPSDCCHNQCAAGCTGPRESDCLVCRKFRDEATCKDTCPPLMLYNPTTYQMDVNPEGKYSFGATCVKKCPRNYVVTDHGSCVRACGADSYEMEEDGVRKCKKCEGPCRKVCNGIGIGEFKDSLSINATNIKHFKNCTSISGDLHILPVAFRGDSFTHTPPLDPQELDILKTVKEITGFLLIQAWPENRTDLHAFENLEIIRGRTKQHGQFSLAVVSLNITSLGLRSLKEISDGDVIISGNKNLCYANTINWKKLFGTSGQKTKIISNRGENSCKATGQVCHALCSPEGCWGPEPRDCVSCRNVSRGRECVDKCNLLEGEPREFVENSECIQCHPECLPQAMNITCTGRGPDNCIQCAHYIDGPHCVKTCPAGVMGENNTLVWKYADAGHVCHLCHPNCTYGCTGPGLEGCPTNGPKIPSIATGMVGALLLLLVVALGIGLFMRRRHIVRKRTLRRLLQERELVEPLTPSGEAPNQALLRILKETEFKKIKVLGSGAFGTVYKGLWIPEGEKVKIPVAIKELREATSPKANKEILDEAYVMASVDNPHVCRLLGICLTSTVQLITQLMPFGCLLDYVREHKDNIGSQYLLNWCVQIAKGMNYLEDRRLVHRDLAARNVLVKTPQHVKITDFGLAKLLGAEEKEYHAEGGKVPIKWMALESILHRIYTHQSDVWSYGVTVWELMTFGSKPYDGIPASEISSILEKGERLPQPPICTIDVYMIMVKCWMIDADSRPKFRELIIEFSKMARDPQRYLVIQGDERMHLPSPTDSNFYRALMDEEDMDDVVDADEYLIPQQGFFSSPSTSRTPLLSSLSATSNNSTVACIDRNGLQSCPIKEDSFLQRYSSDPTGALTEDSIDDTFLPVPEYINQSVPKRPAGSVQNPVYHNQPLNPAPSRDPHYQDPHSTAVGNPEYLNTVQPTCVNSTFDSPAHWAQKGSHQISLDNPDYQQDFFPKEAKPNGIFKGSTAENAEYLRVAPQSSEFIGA

[4] = Selectivity index, ratio of IC50 Inhibition of wild type EGFR (unknown origin) to IC50 for Inhibition of EGFR T790M/C797S double mutant (unknown origin)
[5] = target: Epidermal growth factor receptor (Homo sapiens, UniProt P00533); experiment: Inhibition of wild type EGFR (unknown origin) using flurogenic substrate in presence of ATP by HTRF assay
Epidermal growth factor receptor (Homo sapiens, UniProt P00533), sequence (P00533 whole entry): as the sequence (P00533 whole entry, looked up, stated change not applied) above

[6] = target: Epidermal growth factor receptor (Homo sapiens, UniProt P00533, C797S/T790M); experiment: Inhibition of EGFR T790M/C797S double mutant (unknown origin) using flurogenic substrate in presence of ATP by HTRF assay
Epidermal growth factor receptor (Homo sapiens, UniProt P00533, C797S/T790M), sequence (P00533 25-1210 T790M/C797S limits assumed): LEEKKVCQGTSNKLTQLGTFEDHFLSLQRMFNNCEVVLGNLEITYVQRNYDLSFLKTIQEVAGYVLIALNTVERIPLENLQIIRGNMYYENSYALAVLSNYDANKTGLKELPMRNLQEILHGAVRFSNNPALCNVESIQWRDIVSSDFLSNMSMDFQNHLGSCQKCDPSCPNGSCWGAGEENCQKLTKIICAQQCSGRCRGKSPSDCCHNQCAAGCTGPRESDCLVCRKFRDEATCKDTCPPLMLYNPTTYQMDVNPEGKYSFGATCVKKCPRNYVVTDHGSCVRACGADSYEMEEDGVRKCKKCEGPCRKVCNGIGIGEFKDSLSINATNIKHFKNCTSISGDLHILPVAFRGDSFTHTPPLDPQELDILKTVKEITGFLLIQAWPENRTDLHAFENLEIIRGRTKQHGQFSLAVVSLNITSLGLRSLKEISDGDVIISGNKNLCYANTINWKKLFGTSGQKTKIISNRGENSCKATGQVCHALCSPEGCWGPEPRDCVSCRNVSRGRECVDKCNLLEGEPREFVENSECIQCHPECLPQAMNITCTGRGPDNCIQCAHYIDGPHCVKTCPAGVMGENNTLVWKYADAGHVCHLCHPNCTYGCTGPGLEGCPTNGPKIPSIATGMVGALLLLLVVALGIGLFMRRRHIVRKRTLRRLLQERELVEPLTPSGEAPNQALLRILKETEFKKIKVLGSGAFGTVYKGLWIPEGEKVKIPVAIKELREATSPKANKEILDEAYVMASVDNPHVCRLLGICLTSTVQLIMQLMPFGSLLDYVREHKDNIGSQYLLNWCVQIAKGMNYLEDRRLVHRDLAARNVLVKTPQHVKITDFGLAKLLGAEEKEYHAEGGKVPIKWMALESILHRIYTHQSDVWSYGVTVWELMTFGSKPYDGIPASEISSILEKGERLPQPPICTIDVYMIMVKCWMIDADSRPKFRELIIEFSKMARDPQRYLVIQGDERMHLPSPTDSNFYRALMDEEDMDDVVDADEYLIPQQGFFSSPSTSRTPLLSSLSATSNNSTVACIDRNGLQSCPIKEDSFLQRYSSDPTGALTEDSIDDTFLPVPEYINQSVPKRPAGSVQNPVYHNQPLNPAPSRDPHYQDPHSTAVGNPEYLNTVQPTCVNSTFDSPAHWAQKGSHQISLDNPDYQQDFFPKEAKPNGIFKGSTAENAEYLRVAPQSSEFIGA

in vitro [7] = conditions: human
in vitro [8] = conditions: human; remark: listed apart in the source
NCI-H1975 [9] = experiment: Induction of apoptosis in human NCI-H1975 cells assessed as increase in early apoptotic cells at 2.5 uM after 36 hrs by annexin-V-FITC/PI staining based flow cytometric analysis (reference value: 1.24%); assay type: functional
NCI-H1975 [10] = experiment: Induction of cell cycle arrest in human NCI-H1975 cells assessed as accumulation at G2/M phase at 2.5 uM after 36 hrs by PI staining based flow cytometry analysis (reference value: 43.1%); assay type: functional
NCI-H1975 [11] = experiment: Induction of cell cycle arrest in human NCI-H1975 cells assessed as accumulation at S phase at 2.5 uM after 36 hrs by PI staining based flow cytometry analysis (reference value: 32.7 %); assay type: functional
NCI-H1299 [12] = experiment: Induction of apoptosis in human NCI-H1299 cells assessed as increase in necrotic cells at 2.5 uM after 36 hrs by annexin-V-FITC/PI staining based flow cytometric analysis (reference value: 0.75%); assay type: functional
NCI-H1975 [13] = experiment: Induction of apoptosis in human NCI-H1975 cells assessed as increase in late apoptotic cells at 2.5 uM after 36 hrs by annexin-V-FITC/PI staining based flow cytometric analysis (reference value: 3.85%); assay type: functional
NCI-H1975 [14] = experiment: Induction of apoptosis in human NCI-H1975 cells assessed as increase in necrotic cells at 2.5 uM after 36 hrs by annexin-V-FITC/PI staining based flow cytometric analysis (reference value: 0.35%); assay type: functional
NCI-H1299 [15] = experiment: Induction of cell cycle arrest in human NCI-H1299 cells assessed as accumulation at G0/G1 phase at 2.5 uM after 36 hrs by PI staining based flow cytometry analysis (reference value: 70.2%); assay type: functional
NCI-H1975 [16] = experiment: Induction of apoptosis in human NCI-H1975 cells assessed as increase in viable cells at 2.5 uM after 36 hrs by annexin-V-FITC/PI staining based flow cytometric analysis (reference value: 94.6%); assay type: functional
NCI-H1299 [17] = experiment: Induction of cell cycle arrest in human NCI-H1299 cells assessed as accumulation at S phase at 2.5 uM after 36 hrs by PI staining based flow cytometry analysis (reference value: 24.8%); assay type: functional
NCI-H1299 [18] = experiment: Induction of apoptosis in human NCI-H1299 cells assessed as increase in late apoptotic cells at 2.5 uM after 36 hrs by annexin-V-FITC/PI staining based flow cytometric analysis (reference value: 4.39%); assay type: functional
NCI-H1299 [19] = experiment: Induction of cell cycle arrest in human NCI-H1299 cells assessed as accumulation at G2/M phase at 2.5 uM after 36 hrs by PI staining based flow cytometry analysis (reference value: 5.6%); assay type: functional
NCI-H1299 [20] = experiment: Induction of apoptosis in human NCI-H1299 cells assessed as increase in early apoptotic cells at 2.5 uM after 36 hrs by annexin-V-FITC/PI staining based flow cytometric analysis (reference value: 0.79%); assay type: functional
NCI-H1299 [21] = experiment: Induction of apoptosis in human NCI-H1299 cells assessed as increase in viable cells at 2.5 uM after 36 hrs by annexin-V-FITC/PI staining based flow cytometric analysis (reference value: 94.1%); assay type: functional
NCI-H1975 [22] = experiment: Induction of cell cycle arrest in human NCI-H1975 cells assessed as accumulation at G0/G1 phase at 2.5 uM after 36 hrs by PI staining based flow cytometry analysis (reference value: 24.2%); assay type: functional

IC50 (A549) [nM] | IC50 (HCC827) [nM] | IC50 (NCI-H1299 [2]) [nM] | IC50 [3] [nM] | Ratio IC50 [4] | IC50 [5] [nM] | IC50 [6] [nM] | SMILES | further results
2610 | 117 | 3980 | – | – | – | – | C=CC(=O)Nc1cc(Nc2nccc(Nc3cn(C)c4ccccc34)n2)c(OC)cc1N(C)CCN(C)Cc1ccccc1 | IC50 (NCI-H1975 [1]): 4.02 nM
– | – | – | 11.6 | 12.6 | 71.3 | 5.65 | C=CC(=O)Nc1cc(Nc2nccc(Nc3cn(C)nc3C)n2)c(OC)cc1N(C)CCN(C)C | –
5190 | 346 | 5300 | 46.4 | 78.8 | 453 | 5.75 | C=CC(=O)Nc1cc(Nc2nccc(Nc3cn(C)c4ccccc34)n2)c(OC)cc1N(C)CCN(C)CC(=O)OC | IC50 (NCI-H1975 [1]): 8.31 nM; selectivity ratio (in vitro [7]): 637; selectivity ratio (in vitro [8]): 624
– | – | – | 12.6 | 15.6 | 96.5 | 6.2 | C=CC(=O)Nc1cc(Nc2nccc(Nc3ccn(C)n3)n2)c(OC)cc1N(C)CCN(C)C | –
– | – | – | 64 | 31.4 | 181 | 5.75 | C=CC(=O)Nc1cc(Nc2nccc(Nc3cn(C)c4ccccc34)n2)c(OC)cc1N(C)CCN(C)CC(=C)C | –
> 100000 | 6460 | > 100000 | 143 | 304 | 2470 | 8.13 | C=CC(=O)Nc1cc(Nc2nccc(Nc3cn(C)c4ccccc34)n2)c(OC)cc1N(C)CCN(C)Cc1ccc(Br)cc1 | IC50 (NCI-H1975 [1]): 29.7 nM; selectivity ratio (in vitro [7]): 2640; selectivity ratio (in vitro [8]): 2640
> 100000 | 7150 | > 100000 | 301 | > 797 | > 10000 | 12.5 | C=CC(=O)Nc1cc(Nc2nccc(Nc3cn(C)c4ccccc34)n2)c(OC)cc1N(C)CCN(C)C(=O)c1ccc(Br)cc1 | IC50 (NCI-H1975 [1]): 37.9 nM; selectivity ratio (in vitro [7]): 3370; selectivity ratio (in vitro [8]): 3370
– | – | – | 723 | > 273 | > 10000 | 36.6 | C=CC(=O)Nc1cc(Nc2nccc(Nc3cn(C)c4ccccc34)n2)c(OC)cc1N(C)CCN(C)C(=O)C=C | –
– | – | – | 106 | 22.5 | 952 | 42.4 | C=CC(=O)Nc1cc(Nc2nccc(Nc3ccn(C)n3)n2)c(OC)cc1N(C)CCN(C)CC(=O)OC | –
– | – | – | 213 | 235 | 2910 | 12.3 | C=CC(=O)Nc1cc(Nc2nccc(Nc3cn(C)c4ccccc34)n2)c(OC)cc1N(C)CCN(C)C(=O)OC | –
– | – | – | 18.7 | 12.5 | 101 | 8.02 | C=CC(=O)Nc1cc(Nc2nccc(Nc3cnn(CC)c3)n2)c(OC)cc1N(C)CCN(C)C | –
1380 | 24.7 | 1770 | 13.1 | 21.3 | 42.7 | 2 | C=CCCN(C)CCN(C)c1cc(OC)c(Nc2nccc(Nc3cn(C)c4ccccc34)n2)cc1NC(=O)C=C | IC50 (NCI-H1975 [1]): 2.01 nM; selectivity ratio (in vitro [7]): 881; selectivity ratio (in vitro [8]): 687
– | – | – | 288 | 9.84 | 4930 | 502 | C=CC(=O)Nc1cc(Nc2nccc(Nc3ccn(C)n3)n2)c(OC)cc1N(C)CCN(C)C(=O)OC | –
– | – | – | 949 | > 172 | > 10000 | 58 | C=CC(=O)Nc1cc(Nc2nccc(Nc3cn(C)c4ccccc34)n2)c(OC)cc1N(C)CCN(C)C(=O)C#CC | –
– | – | – | 54.3 | 23.1 | 495 | 21.4 | C=CC(=O)Nc1cc(Nc2nccc(Nc3cnn(C)c3)n2)c(OC)cc1N(C)CCN(C)C | –
– | – | – | 22.3 | 5.92 | 50.8 | 8.58 | C#CCN(C)CCN(C)c1cc(OC)c(Nc2nccc(Nc3ccn(C)n3)n2)cc1NC(=O)C=C | –
– | – | – | 625 | 8.02 | 3180 | 397 | C=CC(=O)Nc1cc(Nc2nccc(Nc3ccn(C)n3)n2)c(OC)cc1N(C)CCN(C)CC(=C)C | –

SMILES | IC50 (A549) [nM] | IC50 (HCC827) [nM] | IC50 (NCI-H1299 [2]) [nM] | IC50 [3] [nM] | Ratio IC50 [4] | IC50 [5] [nM] | IC50 [6] [nM] | further results
C=CC(=O)Nc1cc(Nc2nccc(-c3cn(C)c4ccccc34)n2)c(OC)cc1N(C)CCN(C)C [OSIMERTINIB] | 335 | 1.73 | 2840 | – | – | – | – | Activity (NCI-H1975 [9]): 40.8%; Activity (NCI-H1975 [10]): 65.4%; Activity (NCI-H1975 [11]): 17.5%; Activity (NCI-H1299 [12]): 0.43%; Activity (NCI-H1975 [13]): 18.1%; Activity (NCI-H1975 [14]): 0.016%; Activity (NCI-H1299 [15]): 67.3%; Activity (NCI-H1975 [16]): 41.1%; Activity (NCI-H1299 [17]): 24.3%; Activity (NCI-H1299 [18]): 7.44%; Activity (NCI-H1299 [19]): 8.4%; Activity (NCI-H1299 [20]): 1.47%; Activity (NCI-H1299 [21]): 90.7%; Activity (NCI-H1975 [22]): 17.1%

Reference: ChEMBL document CHEMBL5046228 (Eur J Med Chem, 2022)
